The text below walks through data of patent US12226418B2, “Dosing regimen for the treatment of PI3K related disorders” (Incyte Corporation, priority 2018, dated 2025).

The target of one assay is JAK2 (Homo sapiens (Human), UniProt O60674). The experiment in a line: JAK2/JAK1 selectivity, Assay A at 1 mM ATP. Type of assay: biochemical. Conditions: IC50 ratio.
The next assay has as its target JAK1 (Homo sapiens (Human), UniProt P23458). In words: JAK1 IC50, Assay A of U.S. Ser. No. 14/680,659 at 1 mM ATP. Type of assay: biochemical.

Bounds are passed on as bounds.

Chain of JAK2 (O60674 828-1132): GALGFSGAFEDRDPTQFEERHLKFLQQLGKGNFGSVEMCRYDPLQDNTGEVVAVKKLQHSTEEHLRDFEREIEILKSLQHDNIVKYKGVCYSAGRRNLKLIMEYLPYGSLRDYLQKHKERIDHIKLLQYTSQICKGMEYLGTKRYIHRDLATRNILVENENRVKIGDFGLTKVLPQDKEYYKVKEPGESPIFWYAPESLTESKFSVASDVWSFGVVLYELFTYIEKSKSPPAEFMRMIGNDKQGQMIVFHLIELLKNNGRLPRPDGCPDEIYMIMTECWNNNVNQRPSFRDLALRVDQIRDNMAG
Chain of JAK1 (P23458 837-1142): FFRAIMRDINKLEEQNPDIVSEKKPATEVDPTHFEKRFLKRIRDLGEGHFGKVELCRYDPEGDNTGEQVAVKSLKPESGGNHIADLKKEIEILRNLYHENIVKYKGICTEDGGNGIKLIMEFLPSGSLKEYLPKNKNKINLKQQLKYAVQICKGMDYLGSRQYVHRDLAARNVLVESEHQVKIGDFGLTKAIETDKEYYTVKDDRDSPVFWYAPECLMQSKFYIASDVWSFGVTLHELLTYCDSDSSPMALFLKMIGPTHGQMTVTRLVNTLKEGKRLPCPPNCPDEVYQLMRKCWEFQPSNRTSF

For orientation: IC50 means the concentration at which inhibition is half-maximal. Turning to `N#CCC1(n2cc(-c3ncnc4[nH]ccc34)cn2)CN([C@H]2CC[C@@H](Oc3cc(CCO)nc(C(F)(F)F)n3)CC2)C1` [Example 18, {1-(cis-4-{[6-(2-hydroxyethyl)-2-(trifluoromethyl)pyrimidin-4-yl]oxy}cyclohexyl)-3-[4-(7H-pyrrolo[2,3-d]pyrimidin-4-yl)-1H-pyrazol-1-yl]azetidin-3-yl}acetonitrile], on JAK2, the “JAK2/ JAK1” value is on record as above 10. Further, the concentration for half-maximal inhibition (IC50) at JAK1 is below 10 nM.
For `N#CCC(CN1CCN(C(=O)c2ccc(C#N)cc2F)CC1)n1cc(-c2ncnc3[nH]ccc23)cn1` (centres unmarked) [Example 5, 4-[(4-{3-cyano-2-[4-(7H-pyrrolo[2,3-d]pyrimidin-4-yl)-1H-pyrazol-1-yl]propyl}piperazin-1-yl)carbonyl]-3-fluorobenzonitrile] the same measures were above 10 and below 10 nM.
The corresponding values for `N#CCC1(n2cc(-c3ncnc4[nH]ccc34)cn2)CN(C2CCN(C(=O)c3ccnc(C(F)(F)F)c3F)CC2)C1` [Example 7] are above 10 and below 10 nM.
For the molecule `C[C@H](NC(=O)c1cc(F)c(N2CC(CC#N)(n3cc(-c4ncnc5[nH]ccc45)cn3)C2)cc1F)C(F)(F)F` [Example 16, 4-{3-(cyanomethyl)-3-[4-(7H-pyrrolo[2,3-d]pyrimidin-4-yl)-1H-pyrazol-1-yl]azetidin-1-yl}-2,5-difluoro-N-[(1S)-2,2,2-trifluoro-1-methylethyl]benzamide], the “JAK2/ JAK1” value at JAK2 is above 10. In addition, on JAK1, the IC50 is below 10 nM.
The corresponding values for `N#CC[C@]1(n2cc(-c3ncnc4[nH]ccc34)cn2)C[C@H](N2CCC(Oc3cc(CN4CCC[C@@H]4CO)cc(C(F)(F)F)n3)CC2)C1` [Example 13] are above 10 and below 10 nM.
For `C[C@@H](CO)NCc1cc(OC2CCN([C@H]3C[C@](CC#N)(n4cc(-c5ncnc6[nH]ccc56)cn4)C3)CC2)nc(C(F)(F)F)c1` [Example 23] the same measures were above 10 and below 10 nM.
For `N#CCC(CN1CCN(C(=O)c2ccc(C#N)cc2F)CC1)n1ccc(-c2ncnc3[nH]ccc23)c1` (centres unmarked) [Example 6, 4-[(4-{3-cyano-2-[3-(7H-pyrrolo[2,3-d]pyrimidin-4-yl)-1H-pyrrol-1-yl]propyl}piperazin-1-yl)carbonyl]-3-fluorobenzonitrile] the same measures were above 10 and below 10 nM.
For `N#CCC1(n2cc(-c3ncnc4[nH]ccc34)cn2)CN([C@H]2CC[C@@H](Oc3cc(CN4CC[C@@H](O)C4)cc(C(F)(F)F)n3)CC2)C1` [Example 21, {1-(cis-4-{[4-{[(3R)-3-hydroxypyrrolidin-1-yl]methyl}-6-(trifluoromethyl)pyridin-2-yl]oxy}cyclohexyl)-3-[4-(7H-pyrrolo[2,3-d]pyrimidin-4-yl)-1H-pyrazol-1-yl]azetidin-3-yl}acetonitrile], the “JAK2/ JAK1” value on JAK2 is listed as above 10. For the same molecule, at JAK1, the IC50 was below 10 nM.
For `CC(C)(O)c1cc(O[C@H]2CC[C@@H](N3CC(CC#N)(n4cc(-c5ncnc6[nH]ccc56)cn4)C3)CC2)nc(C(F)(F)F)c1` [Example 20, {1-(cis-4-{[4-(1-hydroxy-1-methylethyl)-6-(trifluoromethyl)pyridin-2-yl]oxy}cyclohexyl)-3-[4-(7H-pyrrolo[2,3-d]pyrimidin-4-yl)-1H-pyrazol-1-yl]azetidin-3-yl}acetonitrile] the same measures were above 10 and below 10 nM.
The corresponding values for `N#CC[C@]1(n2cc(-c3ncnc4[nH]ccc34)cn2)C[C@H](N2CCC(Oc3cc(CCO)cc(C(F)(F)F)n3)CC2)C1` [Example 26] are above 10 and below 10 nM.
